Like-named read-outs stand apart in the source and are kept apart here.
Legend:
Type in all cases: biochemical
[1] = target: CDK2/CCNE1 (Homo sapiens, UniProt P24941); assay: CDK2 homogeneous time-resolved fluorescence (HTRF) kinase assay; details: CDK2/CCNE
Summary of the method: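 IC50 derived from 11-point, half-log dilutions (usually top 10 μM) of compound, 1% DMSO. Kinase (3 nM CDK2/CCNE1) was preincubated with compound 20 min, then phosphorylated 50 nM ULight-4E-BP1 peptide at 1 mM ATP for 60 min, 23 °C. Europium-antibody TR-FRET read after EDTA stop.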

[2] = target: CDK1/CCNB1 (Homo sapiens, UniProt P06493); assay: CDK1 homogeneous time-resolved fluorescence (HTRF) kinase assay; details: CDK1/CCNB
Summary of the method: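 0.5 nM CDK1/CCNB1 was preincubated 20 min at 23 °C with compound in HEPES pH-unspecified buffer (MgCl2, EGTA, DTT, Tween 20), then reacted 60 min with 1 mM ATP and 50 nM ULight-4E-BP1 (Thr37/46) peptide. EDTA-stopped reactions were detected with 2 nM Eu-anti-phospho antibody; IC50 from 11-point half-log titrations.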

[3] = target: CDK4/CCND3 (Homo sapiens, UniProt P11802); assay: CDK4 homogeneous time-resolved fluorescence (HTRF) kinase assay; details: CDK4/CCND
Summary of the method: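 IC50 values were derived from 11-point half-log dilutions, usually starting at 10 μM. Compound was first held for 20 min at 23 °C with 1.5 nM CDK4/CCND3. 1 mM ATP and 50 nM ULight-eIF4E-BP1 (Thr37/46) substrate were then added for 60 min, and the TR-FRET 665 nm signal was measured after EDTA stop and Eu-anti-phospho-4E-BP1 detection.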

[4] = target: CDK6/CCND1 (Homo sapiens, UniProt Q00534); assay: CDK6 homogeneous time-resolved fluorescence (HTRF) kinase assay; details: CDK6/CCND
Summary of the method: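 Recombinant CDK6/CCND1 (1 nM final) was preincubated with compound for 20 min at 23 °C in HEPES buffer with MgCl2, EGTA, DTT and Tween 20. Kinase reaction then ran 60 min at 23 °C with 1 mM ATP and 50 nM ULight-4E-BP1 (Thr37/46) peptide, and was stopped with EDTA.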

[5] = <25 nM, read-out: CDK2/CCNE IC50 <25 nM
[6] = 25-250 nM marked x, read-out: CDK1/CCNB IC50 25-250 nM
[7] = 25-250 nM marked x, read-out: CDK4/CCND IC50 25-250 nM
[8] = 25-250 nM marked x, read-out: CDK6/CCND IC50 25-250 nM
[9] = >250 nM marked x, read-out: CDK2/CCNE IC50 >250 nM
[10] = >250 nM marked x, read-out: CDK1/CCNB IC50 >250 nM
[11] = >250 nM marked x, read-out: CDK4/CCND IC50 >250 nM
[12] = >250 nM marked x, read-out: CDK6/CCND IC50 >250 nM
[13] = 25-250 nM marked x, read-out: CDK2/CCNE IC50 25-250 nM

Sequence of CDK6/CCND1 (Q00534 whole entry): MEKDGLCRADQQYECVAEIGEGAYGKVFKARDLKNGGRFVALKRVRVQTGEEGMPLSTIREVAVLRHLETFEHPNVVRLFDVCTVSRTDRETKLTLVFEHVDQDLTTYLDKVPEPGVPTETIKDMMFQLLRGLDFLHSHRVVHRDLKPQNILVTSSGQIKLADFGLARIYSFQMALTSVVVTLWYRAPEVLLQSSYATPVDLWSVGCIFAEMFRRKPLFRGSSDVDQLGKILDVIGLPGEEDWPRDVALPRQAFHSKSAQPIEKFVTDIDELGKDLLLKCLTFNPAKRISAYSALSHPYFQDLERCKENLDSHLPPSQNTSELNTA
Sequence of CDK6/CCND1 (P24385 whole entry partner): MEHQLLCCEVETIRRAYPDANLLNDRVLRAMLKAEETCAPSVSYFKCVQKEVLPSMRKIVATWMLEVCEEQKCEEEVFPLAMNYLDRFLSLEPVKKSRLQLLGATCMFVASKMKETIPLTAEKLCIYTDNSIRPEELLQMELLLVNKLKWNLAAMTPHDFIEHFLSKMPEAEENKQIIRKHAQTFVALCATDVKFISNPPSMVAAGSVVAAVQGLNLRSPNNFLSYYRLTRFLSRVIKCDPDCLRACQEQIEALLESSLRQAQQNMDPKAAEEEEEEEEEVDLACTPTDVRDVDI
Sequence of CDK1/CCNB1 (P06493 whole entry): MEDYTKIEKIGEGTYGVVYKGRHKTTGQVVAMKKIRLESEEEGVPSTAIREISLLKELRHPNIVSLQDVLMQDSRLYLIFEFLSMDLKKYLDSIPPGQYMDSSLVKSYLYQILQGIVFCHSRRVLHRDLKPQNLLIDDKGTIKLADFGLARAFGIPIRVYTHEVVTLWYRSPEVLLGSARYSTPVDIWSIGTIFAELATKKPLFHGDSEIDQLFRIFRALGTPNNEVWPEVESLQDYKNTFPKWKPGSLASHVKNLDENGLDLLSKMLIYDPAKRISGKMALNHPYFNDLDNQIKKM
Sequence of CDK1/CCNB1 (P14635 whole entry partner): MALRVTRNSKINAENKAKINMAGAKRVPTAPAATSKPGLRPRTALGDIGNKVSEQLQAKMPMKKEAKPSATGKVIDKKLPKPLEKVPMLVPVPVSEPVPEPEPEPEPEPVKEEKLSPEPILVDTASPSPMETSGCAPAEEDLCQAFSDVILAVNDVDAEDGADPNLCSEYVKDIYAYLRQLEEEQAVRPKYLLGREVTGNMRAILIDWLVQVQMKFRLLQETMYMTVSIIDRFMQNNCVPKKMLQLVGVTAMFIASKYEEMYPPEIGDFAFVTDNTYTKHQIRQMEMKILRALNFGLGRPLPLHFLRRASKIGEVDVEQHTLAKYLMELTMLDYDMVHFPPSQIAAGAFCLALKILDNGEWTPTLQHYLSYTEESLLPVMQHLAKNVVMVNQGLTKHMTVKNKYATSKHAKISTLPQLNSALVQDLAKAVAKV
Sequence of CDK4/CCND3 (P11802 whole entry): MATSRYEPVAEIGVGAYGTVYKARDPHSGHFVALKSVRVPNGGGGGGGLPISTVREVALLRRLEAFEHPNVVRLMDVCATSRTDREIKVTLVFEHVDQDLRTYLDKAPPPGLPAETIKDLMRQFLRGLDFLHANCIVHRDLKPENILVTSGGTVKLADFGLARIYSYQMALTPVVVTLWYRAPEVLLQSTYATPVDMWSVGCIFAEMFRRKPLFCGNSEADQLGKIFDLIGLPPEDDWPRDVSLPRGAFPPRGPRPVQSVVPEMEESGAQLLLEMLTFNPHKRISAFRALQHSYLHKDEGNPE
Sequence of CDK4/CCND3 (P30281 whole entry partner): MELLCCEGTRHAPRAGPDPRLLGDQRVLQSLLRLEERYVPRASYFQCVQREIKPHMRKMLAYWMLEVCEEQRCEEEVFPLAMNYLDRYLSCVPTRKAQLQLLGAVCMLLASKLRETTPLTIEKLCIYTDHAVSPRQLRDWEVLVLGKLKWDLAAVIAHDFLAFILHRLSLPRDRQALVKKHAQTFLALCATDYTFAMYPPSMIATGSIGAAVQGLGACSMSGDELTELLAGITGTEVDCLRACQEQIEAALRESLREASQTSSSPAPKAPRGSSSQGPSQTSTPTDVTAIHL

## N#CC1CCN(c2nccc3cnc(Nc4ccc(S(N)(=O)=O)cc4)cc23)CC1 [Ex 187, 4-((5-(4-cyanopiperidin-1-yl)-2,6-naphthyridin-3-yl)amino)benzenesulfonamide]
[1]; [5]
  IC50: < 0.025 µM
[2]; [6]
  IC50: 0.025 to 0.25 µM
[3]; [7]
  IC50: 0.025 to 0.25 µM
[4]; [8]
  IC50: 0.025 to 0.25 µM

## CS(=O)(=O)c1ccc(Nc2cc3c(C4CCN(C(=O)Nc5cccnc5)CC4)nccc3cn2)cc1 [Ex 198, 4-(7-((4-(methylsulfonyl)phenyl)amino)-2,6-naphthyridin-1-yl)-N-(pyridin-3-yl)piperidine-1-carboxamide]
[1]; [9]
  IC50: > 0.25 µM
[2]; [10]
  IC50: > 0.25 µM
[3]; [11]
  IC50: > 0.25 µM
[4]; [12]
  IC50: > 0.25 µM

## COCCNC(=O)[C@H]1CC[C@H](c2nccc3cnc(Nc4ccc(S(C)(=O)=O)cc4)cc32)CC1 [Ex 199, (1r,4r)-N-(2-methoxyethyl)-4-(7-((4-(methylsulfonyl)phenyl)amino)-2,6-naphthyridin-1-yl)cyclohexane-1-carboxamide]
[1]; [13]
  IC50: 0.025 to 0.25 µM
[2]; [10]
  IC50: > 0.25 µM
[3]; [11]
  IC50: > 0.25 µM
[4]; [12]
  IC50: > 0.25 µM

## CS(=O)(=O)c1ccc(Nc2cc3c(ccnc3[C@H]3CC[C@H](C(=O)NC4CCC4)CC3)cn2)cc1 [Ex 200, (1r,4r)-N-cyclobutyl-4-(7-((4-(methylsulfonyl)phenyl)amino)-2,6-naphthyridin-1-yl)cyclohexane-1-carboxamide]
[1]; [13]
  IC50: 0.025 to 0.25 µM
[2]; [10]
  IC50: > 0.25 µM
[3]; [11]
  IC50: > 0.25 µM
[4]; [12]
  IC50: > 0.25 µM

## CS(=O)(=O)c1ccc(Nc2cc3c(ccnc3[C@H]3CC[C@H](C(=O)N4CCOCC4)CC3)cn2)cc1 [Ex 201, ((1r,4r)-4-(7-((4-(methylsulfonyl)phenyl)amino)-2,6-naphthyridin-1-yl)cyclohexyl)(morpholino)methanone]
[1]; [9]
  IC50: > 0.25 µM
[2]; [10]
  IC50: > 0.25 µM
[3]; [11]
  IC50: > 0.25 µM
[4]; [12]
  IC50: > 0.25 µM

## CS(=O)(=O)c1ccc(Nc2cc3c(ccnc3[C@H]3CC[C@H](C(=O)Nc4ccccc4)CC3)cn2)cc1 [Ex 202, (1r,4r)-4-(7-((4-(methylsulfonyl)phenyl)amino)-2,6-naphthyridin-1-yl)-N-phenylcyclohexane-1-carboxamide]
[1]; [13]
  IC50: 0.025 to 0.25 µM
[2]; [10]
  IC50: > 0.25 µM
[3]; [11]
  IC50: > 0.25 µM
[4]; [12]
  IC50: > 0.25 µM

## Cc1c(-c2nccc3cnc(Nc4ccc(S(C)(=O)=O)cc4)cc23)ccc2nn(CCO)cc12 [Ex 206, 2-(4-methyl-5-(7-((4-(methylsulfonyl)phenyl)amino)-2,6-naphthyridin-1-yl)-2H-indazol-2-yl)ethan-1-ol]
[1]; [13]
  IC50: 0.025 to 0.25 µM
[2]; [10]
  IC50: > 0.25 µM
[3]; [11]
  IC50: > 0.25 µM
[4]; [12]
  IC50: > 0.25 µM

## Cc1c(-c2nccc3cnc(Nc4ccc(S(C)(=O)=O)cc4)cc23)ccc2c1cnn2CC1CNC1 [Ex 207, 5-(1-(azetidin-3-ylmethyl)-4-methyl-1H-indazol-5-yl)-N-(4-(methylsulfonyl)phenyl)-2,6-naphthyridin-3-amine]
[1]; [5]
  IC50: < 0.025 µM
[2]; [6]
  IC50: 0.025 to 0.25 µM
[3]; <25 nM, read-out: CDK4/CCND IC50 <25 nM
  IC50: < 0.025 µM
[4]; <25 nM, read-out: CDK6/CCND IC50 <25 nM
  IC50: < 0.025 µM

## COC(=O)[C@H]1CC[C@H](C#Cc2nccc3cnc(Nc4ccc(S(C)(=O)=O)cc4)cc23)CC1 [Ex 213, methyl (1r,4r)-4-((7-((4-(methylsulfonyl)phenyl)amino)-2,6-naphthyridin-1-yl)ethynyl)cyclohexane-1-carboxylate]
[1]; [5]
  IC50: < 0.025 µM
[2]; [10]
  IC50: > 0.25 µM
[3]; [7]
  IC50: 0.025 to 0.25 µM
[4]; [8]
  IC50: 0.025 to 0.25 µM

## CS(=O)(=O)c1ccc(Nc2cc3c(C#CC4CC4)nccc3cn2)cc1 [Ex 214, 5-(cyclopropylethynyl)-N-(4-(methylsulfonyl)phenyl)-2,6-naphthyridin-3-amine]
[1]; [5]
  IC50: < 0.025 µM
[2]; [10]
  IC50: > 0.25 µM
[3]; [7]
  IC50: 0.025 to 0.25 µM
[4]; [8]
  IC50: 0.025 to 0.25 µM

## Cc1c(-c2nccc3cnc(Nc4ccc(S(C)(=O)=O)cc4)cc23)ccc2c1cnn2CCC1CNC1 [Ex 216, 5-(1-(2-(azetidin-3-yl)ethyl)-4-methyl-1H-indazol-5-yl)-N-(4-(methylsulfonyl)phenyl)-2,6-naphthyridin-3-amine]
[1]; [13]
  IC50: 0.025 to 0.25 µM
[2]; [10]
  IC50: > 0.25 µM
[3]; [11]
  IC50: > 0.25 µM
[4]; [12]
  IC50: > 0.25 µM

## C=CS(=O)(=O)c1ccc(Nc2cc3c(-c4cccc(CO)c4)nccc3cn2)cc1 [Ex 217, (3-(7-((4-(vinylsulfonyl)phenyl)amino)-2,6-naphthyridin-1-yl)phenyl)methanol]
[1]; [13]
  IC50: 0.025 to 0.25 µM
[2]; [10]
  IC50: > 0.25 µM
[3]; [11]
  IC50: > 0.25 µM
[4]; [12]
  IC50: > 0.25 µM

## COc1c(-c2nccc3cnc(Nc4ccc(S(C)(=O)=O)cc4)cc23)ccc2[nH]ncc12 [Ex 220, 5-(4-methoxy-1H-indazol-5-yl)-N-(4-(methylsulfonyl)phenyl)-2,6-naphthyridin-3-amine]
[1]; [13]
  IC50: 0.025 to 0.25 µM
[2]; [10]
  IC50: > 0.25 µM
[3]; [11]
  IC50: > 0.25 µM
[4]; [12]
  IC50: > 0.25 µM

## Cc1cc2[nH]ncc2cc1-c1nccc2cnc(Nc3ccc(S(=O)(=O)CCO)cc3)cc12 [Ex 222, 2-((4-((5-(6-methyl-1H-indazol-5-yl)-2,6-naphthyridin-3-yl)amino)phenyl)sulfonyl)ethan-1-ol]
[1]; [13]
  IC50: 0.025 to 0.25 µM
[2]; [10]
  IC50: > 0.25 µM
[3]; [11]
  IC50: > 0.25 µM
[4]; [12]
  IC50: > 0.25 µM

## CS(=O)(=O)c1ccc(Nc2cc3c(ccnc3[C@H]3CC[C@H](C(N)=O)CC3)cn2)cc1 [Ex 223, (1r,4r)-4-(7-((4-(methylsulfonyl)phenyl)amino)-2,6-naphthyridin-1-yl)cyclohexane-1-carboxamide]
[1]; [13]
  IC50: 0.025 to 0.25 µM
[2]; [10]
  IC50: > 0.25 µM
[3]; [7]
  IC50: 0.025 to 0.25 µM
[4]; [12]
  IC50: > 0.25 µM

## C=CCNC(=O)[C@H]1CC[C@H](c2nccc3cnc(Nc4ccc(S(C)(=O)=O)cc4)cc32)CC1 [Ex 224, (1r,4r)-N-allyl-4-(7-((4-(methylsulfonyl)phenyl)amino)-2,6-naphthyridin-1-yl)cyclohexane-1-carboxamide]
[1]; [13]
  IC50: 0.025 to 0.25 µM
[2]; [10]
  IC50: > 0.25 µM
[3]; [11]
  IC50: > 0.25 µM
[4]; [12]
  IC50: > 0.25 µM

## CN(C)C(=O)[C@H]1CC[C@H](c2nccc3cnc(Nc4ccc(S(C)(=O)=O)cc4)cc32)CC1 [Ex 225, (1r,4r)-N,N-dimethyl-4-(7-((4-(methylsulfonyl)phenyl)amino)-2,6-naphthyridin-1-yl)cyclohexane-1-carboxamide]
[1]; [9]
  IC50: > 0.25 µM
[2]; [10]
  IC50: > 0.25 µM
[3]; [11]
  IC50: > 0.25 µM
[4]; [12]
  IC50: > 0.25 µM

## CS(=O)(=O)c1ccc(Nc2cc3c(ccnc3[C@H]3CC[C@H](C(=O)NC4CCOCC4)CC3)cn2)cc1 [Ex 226, (1r,4r)-4-(7-((4-(methylsulfonyl)phenyl)amino)-2,6-naphthyridin-1-yl)-N-(tetrahydro-2H-pyran-4-yl)cyclohexane-1-carboxamide]
[1]; [9]
  IC50: > 0.25 µM
[2]; [10]
  IC50: > 0.25 µM
[3]; [11]
  IC50: > 0.25 µM
[4]; [12]
  IC50: > 0.25 µM

## CN1CCN(C(=O)[C@H]2CC[C@H](c3nccc4cnc(Nc5ccc(S(C)(=O)=O)cc5)cc43)CC2)CC1 [Ex 227, (4-methylpiperazin-1-yl)((1r,4r)-4-(7-((4-(methylsulfonyl)phenyl)amino)-2,6-naphthyridin-1-yl)cyclohexyl)methanone]
[1]; [9]
  IC50: > 0.25 µM
[2]; [10]
  IC50: > 0.25 µM
[3]; [11]
  IC50: > 0.25 µM
[4]; [12]
  IC50: > 0.25 µM

## CS(=O)(=O)c1ccc(Nc2cc3c(ccnc3[C@H]3CC[C@H](C(=O)N4CCSCC4)CC3)cn2)cc1 [Ex 228, ((1r,4r)-4-(7-((4-(methylsulfonyl)phenyl)amino)-2,6-naphthyridin-1-yl)cyclohexyl)(thiomorpholino)methanone]
[1]; [9]
  IC50: > 0.25 µM
[2]; [10]
  IC50: > 0.25 µM
[3]; [11]
  IC50: > 0.25 µM
[4]; [12]
  IC50: > 0.25 µM

— US20260325533A1, “CDK INHIBITOR COMPOUNDS” (ALEKSIA THERAPEUTICS, INC., priority 2023, published 2026)
